Results reported in US20060111305A1, “Metabolites of certain [1,4]diazepino[6,7,1-ij]quinoline derivatives and methods of preparation and use thereof” (Wyeth, priority 2004, published 2006).
Where “and” joins values, the source holds several entries; their conditions need not be identical. Identical values can stand only once. Like-named read-outs stand apart in the source and are kept apart here.

Test: Concentrations of DCDQ and DCDQ carbamoyl glucuronide (M6) in human plasma, LC/SRM (Table 34)
Type: in vivo, healthy human subjects
Settings: plasma, plasma; for concentration at 6 h / concentration at 12 h / concentration at 24 h: human, oral, read-out: DCDQ concentration in plasma
Procedure: Drug administration and specimen collection were performed in a randomized, double-blinded, placebo-controlled, ascending single dose study of the safety, tolerability, pharmacokinetics, and pharmacodynamics of DCDQ administered orally to healthy subjects and subjects with schizophrenia and schizoaffective disorder. The specimens were stored at approximately −70° C. until analysis for metabolite profiles and for ratios of carbamoyl glucuronide (M6) to DCDQ.
Plasma samples from fasted subjects 25, 28 and 30 in the 50 mg single dose group, fasted subjects 50, 51, 54 in the 200 mg single dose group, fasted subjects 74, 76, 79 in the 300 mg single dose group, fed subjects 83, 84, 86 in the 300 mg single dose group and fasted subjects 92, 94, 96 in the 500 mg single dose group were analyzed for DCDQ carbamoyl glucuronide (M6) concentrations. The internal standard d8-DCDQ (25 μL of 200 ng/mL methanol solution) was added to 100 μL of the plasma samples, followed by the addition of 300 μL of acetonitrile. The samples were mixed and centrifuged at 14000 rpm in an Eppendorf 5415C centrifuge (Brinkman Instruments Inc., Westbury, N.Y.) for 10 minutes. The supernatant of each sample was transferred to a clean tube and evaporated to dryness under a stream of nitrogen in a TurboVap LV evaporator (Caliper Life Sciences, Hopkinton, Mass.). The residue was reconstituted with 50 μL of methanol followed by the addition of 150 μL of water. The sample was mixed and centrifuged as described above. The supernatant was analyzed by LC/MS/MS analysis. Samples for standard curves were prepared with control plasma spiked with synthetic M6. The concentrations of M6 used for the standard curve ranged from 0 to 2500 ng/mL plasma.
LC/MS System 3 was used for semi-quantitative analysis of metabolite M6 (DCDQ carbamoyl glucuronide) in plasma and urine samples. The HPLC equipment for this LC/MS System consisted of a Thermo Surveyor HPLC (Thermo Electron Corp., San Jose, Calif.), including a Surveyor MS pump and autosampler. Separations were accomplished on a 5 micron Phenomenex Luna C18(2) column, 150×2 mm (Phenomenex, Torrance, Calif.). The autosampler and column temperatures were set at 5° C. and 40° C., respectively. The HPLC mobile phase consisted of 10 mM ammonium acetate (A) and methanol (B), and was delivered at 0.2 mL/min. The linear mobile phase gradient (HPLC Gradient 2) is shown below. During LC/MS sample analysis, up to 3 min of the initial flow was diverted away from the mass spectrometer prior to evaluation of metabolites.
The mass spectrometer used for semi-quantitative anslysis with LC/MS System 3 was a Finnigan TSQ Quantum triple quadrupole mass spectrometer (Thermo Electron Corp.). The mass spectrometer was equipped with an electrospray interface and operated in the positive ionization mode. Settings for this mass spectrometer are listed below.
LC/MS/MS analysis in the selected reaction monitoring (SRM) mode (LC/SRM) was conducted for DCDQ and M6 using the following settings.
The computer program Microsoft Excel® 97 was used to calculate means and standard deviations and to perform the student t-test. Xcalibur (version 1.3) and MassLynx software (version 4.0) were used for collection and analysis of LC/MS data. Peak area ratios of M6 to the internal standard were used for quantitation of M6 in plasma samples.

c1cc2c3c(c1)[C@H]1CCC[C@H]1CN3CCNC2 [DCDQ, (9aR,12aS)-4,5,6,7,9,9a,10,11,12,12a-decahydro-cyclopenta[c][1,4]diazepine[6,7,1-ij]quinoline, reference compound]
concentration at 6 h (50 mg, 50 mg (fasted), 6 hr, Mean ± S.D.): 2.47 ± 2.21 ng/mL | concentration at 12 h (50 mg, 50 mg (fasted), 12 hr, Mean ± S.D.): 1.2 ± 1.14 ng/mL | concentration at 24 h (50 mg, 50 mg (fasted), 24 hr, Mean (standard deviation not calculated)): 0.4 ng/mL | concentration at 6 h (200 mg, 200 mg (fasted), 6 hr, Mean ± S.D.): 10.9 ± 7.71 ng/mL | concentration at 12 h (200 mg, 200 mg (fasted), 12 hr, Mean ± S.D.): 5.6 ± 4.06 ng/mL | concentration at 24 h (200 mg, 200 mg (fasted), 24 hr, Mean ± S.D.): 1.5 ± 1.15 ng/mL | concentration at 6 h (300 mg, 300 mg (fasted), 6 hr, Mean ± S.D.): 7.45 ± 7.48 ng/mL | concentration at 12 h (300 mg, 300 mg (fasted), 12 hr, Mean ± S.D.): 4.23 ± 3.26 ng/mL | concentration at 24 h (300 mg, 300 mg (fasted), 24 hr, Mean ± S.D.): 1.46 ± 0.43 ng/mL | concentration at 24 h (300 mg, 300 mg (fasted), 24 hr, individual subjects): 0.972 ng/mL | concentration at 6 h (300 mg, 300 mg (fed), 6 hr, Mean ± S.D.): 12 ± 9.39 ng/mL | concentration at 12 h (300 mg, 300 mg (fed), 12 hr, Mean ± S.D.): 8.31 ± 2.47 ng/mL | concentration at 12 h (300 mg, 300 mg (fed), 12 hr, individual subjects): 10.9 ng/mL | concentration at 24 h (300 mg, 300 mg (fed), 24 hr, Mean ± S.D.): 2.15 ± 0.86 ng/mL | concentration at 6 h (500 mg, 500 mg (fasted), 6 hr, Mean ± S.D.): 32.1 ± 12.2 ng/mL | concentration at 12 h (500 mg, 500 mg (fasted), 12 hr, Mean ± S.D.): 19.4 ± 6.56 ng/mL | concentration at 24 h (500 mg, 500 mg (fasted), 24 hr, Mean ± S.D.): 5.45 ± 1.47 ng/mL | concentration at 24 h (500 mg, 500 mg (fasted), 24 hr, individual subjects): 5.53 ng/mL | DCDQ concentration in plasma (50 mg (fasted), 6 hr, individual subjects): 0.9 ng/mL and 5.0 ng/mL | DCDQ concentration in plasma (50 mg (fasted), 12 hr, individual subjects): 0.7 ng/mL and 0.4 ng/mL and 2.5 ng/mL | DCDQ concentration in plasma (50 mg (fasted), 24 hr, individual subjects): 0.2 ng/mL and 0.6 ng/mL | DCDQ concentration in plasma (200 mg (fasted), 6 hr, individual subjects): 2.7 ng/mL and 18.0 ng/mL and 12.0 ng/mL | DCDQ concentration in plasma (200 mg (fasted), 12 hr, individual subjects): 1.2 ng/mL and 9.2 ng/mL and 6.4 ng/mL | DCDQ concentration in plasma (200 mg (fasted), 24 hr, individual subjects): 0.3 ng/mL and 2.6 ng/mL and 1.6 ng/mL | DCDQ concentration in plasma (300 mg (fasted), 6 hr, individual subjects): 2.09 ng/mL and 4.27 ng/mL and 16.0 ng/mL | DCDQ concentration in plasma (300 mg (fasted), 12 hr, individual subjects): 1.50 ng/mL and 3.34 ng/mL and 7.84 ng/mL | DCDQ concentration in plasma (300 mg (fasted), 24 hr, individual subjects): 1.72 ng/mL and 1.70 ng/mL | DCDQ concentration in plasma (300 mg (fed), 6 hr, individual subjects): 19.0 ng/mL and 15.6 ng/mL and 1.30 ng/mL | DCDQ concentration in plasma (300 mg (fed), 12 hr, individual subjects): 8.06 ng/mL and 5.97 ng/mL | DCDQ concentration in plasma (300 mg (fed), 24 hr, individual subjects): 2.60 ng/mL and 1.15 ng/mL and 2.69 ng/mL | DCDQ concentration in plasma (500 mg (fasted), 6 hr, individual subjects): 44.5 ng/mL and 31.7 ng/mL and 20.2 ng/mL | DCDQ concentration in plasma (500 mg (fasted), 12 hr, individual subjects): 24.5 ng/mL and 21.7 ng/mL and 12.0 ng/mL | DCDQ concentration in plasma (500 mg (fasted), 24 hr, individual subjects): 6.88 ng/mL and 3.95 ng/mL
